Experimental data taken from article PMC3083410, “A Soluble Acetylcholinesterase Provides Chemical Defense against Xenobiotics in the Pinewood Nematode” (PLoS ONE, 2011).

Key:
BxACE-3 = target: T1, BxACE-3 (Bursaphelenchus xylophilus, UniProt D2JYX1); test: colorimetric acetylthiocholine/DTNB assay; type: biochemical; details: read-out: % inhibition at 2 mM
T1 construct: gene AChE3; recombinant, baculovirus system

BxACE-1 = target: T2, BxACE-1 (Bursaphelenchus xylophilus, UniProt D2JYW9); test: colorimetric acetylthiocholine/DTNB assay; type: biochemical; details: read-out: % inhibition at 2 mM
T2 construct: gene AChE1; recombinant, baculovirus system
T2 sequence (D2JYW9 entry or part of it): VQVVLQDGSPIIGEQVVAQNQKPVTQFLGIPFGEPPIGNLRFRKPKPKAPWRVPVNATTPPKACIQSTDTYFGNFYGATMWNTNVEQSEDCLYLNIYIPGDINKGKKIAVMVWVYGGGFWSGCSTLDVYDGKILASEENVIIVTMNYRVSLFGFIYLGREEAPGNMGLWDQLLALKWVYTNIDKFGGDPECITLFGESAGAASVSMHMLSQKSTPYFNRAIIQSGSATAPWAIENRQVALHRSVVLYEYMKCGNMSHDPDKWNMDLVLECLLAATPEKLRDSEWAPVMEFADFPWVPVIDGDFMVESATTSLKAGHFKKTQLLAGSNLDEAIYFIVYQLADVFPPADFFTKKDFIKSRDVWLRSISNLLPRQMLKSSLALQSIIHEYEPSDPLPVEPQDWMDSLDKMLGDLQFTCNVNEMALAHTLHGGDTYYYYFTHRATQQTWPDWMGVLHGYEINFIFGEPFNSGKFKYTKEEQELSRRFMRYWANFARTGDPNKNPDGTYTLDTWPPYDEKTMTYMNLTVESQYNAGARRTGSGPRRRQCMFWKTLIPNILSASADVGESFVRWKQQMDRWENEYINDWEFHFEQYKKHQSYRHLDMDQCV

T1 sequence (D2JYX1 entry or part of it): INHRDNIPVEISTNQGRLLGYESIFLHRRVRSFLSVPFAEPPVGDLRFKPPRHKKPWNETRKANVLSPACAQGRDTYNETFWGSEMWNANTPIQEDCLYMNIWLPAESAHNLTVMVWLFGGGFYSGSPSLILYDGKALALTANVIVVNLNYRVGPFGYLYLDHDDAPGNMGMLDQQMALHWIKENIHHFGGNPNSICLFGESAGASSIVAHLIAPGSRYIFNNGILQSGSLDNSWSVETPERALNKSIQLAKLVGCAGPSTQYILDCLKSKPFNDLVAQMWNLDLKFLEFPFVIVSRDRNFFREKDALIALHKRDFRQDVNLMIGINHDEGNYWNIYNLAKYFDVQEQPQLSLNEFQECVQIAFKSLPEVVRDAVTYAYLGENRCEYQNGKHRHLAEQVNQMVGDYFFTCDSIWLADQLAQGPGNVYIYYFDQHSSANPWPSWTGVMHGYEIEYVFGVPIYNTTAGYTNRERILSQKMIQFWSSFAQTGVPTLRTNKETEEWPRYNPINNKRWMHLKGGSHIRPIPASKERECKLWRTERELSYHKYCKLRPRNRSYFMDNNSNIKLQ

SMILES	inhibition at 2000 µM (BxACE-3) [%]	inhibition at 2000 µM (BxACE-1) [%]
C=C(C)C1CC=C(C)CC1 (stereo not drawn) [limonene]	~10	
CC1=CCC2CC1C2(C)C (stereo not drawn) [α-pinene]	~10	~25
